Entries after “also recorded” stand apart in the source; their conditions may differ.
What was measured:
fresh human whole blood = assay: Release of Interleukin-6 from fresh human whole blood (ELISA); type: cell-based; parameters: Concentration of IL-6: unit of the concentration uncertain; details: for Concentration of IL-6: 24 hours, n = 5
Description: It was the goal of this study to determine the pro-inflammatory signalling capacity of the AP301 peptide. Whole blood cultures were used and the secretion of interleukin-6 (IL-6), a very sensitive marker for pro-inflammatory stimulation, was quantified by ELISA.
• Test system 25 ml of freshly taken heparinized blood from 5 healthy volunteers (HV) was used in the assays. […]
Whole blood (WB) cultures were done by pipetting 1 ml of WB into wells of 24 well plates. In each experiment unstimulated and control-stimulated cultures were included.
If possible the substances and stimulants to be investigated were always added in an identical volume to each well of a given experiment, not greater than 10% of the total volume contained in a well. Unstimulated controls received PBS. Volume adjustments and dilutions for different treatments were also done with PBS.
The content of each well was mixed and the plates incubated at 37° C. and 5% CO2 for 24 hours. After incubation the content of each well was transferred to a fresh 1.5 ml microtube and centrifuged at 8000-9000×g for 15 minutes. The supernatant of each sample was transferred individually to two 1.5 ml microtubes and kept at −20° C. until use.
Interleukin-6 was quantified by a specific ELISA (Human IL-6 ELISA Set, BD Biosciences, Cat. No. 555220) employing an anti-human IL-6 antibody as capture antibody, a biotinylated anti-human IL-6 detection antibody, avidin-horseradish peroxidase conjugate as enzyme reagent, and recombinant IL-6 as standard. Absorbance measurement was performed at 450 nm using the Packard FusionReader.
The results for each plate were stored and evaluated using the FusionDataAnalysis software. […]

[1] = system: U46619-contracted septal coronary arteries; assay: Acetylcholine-induced vasorelaxation of septal coronary arteries from STZ-induced diabetic rats; type: in vivo, rat; details: TIP peptide 125 μg i.p. every three days for four weeks, vs STZ group, n=3
Description: and tested for their ability to relax in response to progressive concentrations of acetylcholine. The vasorelaxant responses are expressed as percent of maximal control relaxation.

STZ-treated rats = details: rat, in vivo
perfused rat hearts = assay: Cardiac permeability by BSA-FITC perfusion (Langendorff method) of hearts from STZ-treated rats; type: in vivo; details: 125 μg/rat over 4 wks i.p.
Description: Following the same protocol as above, hearts from Ctrl, STZ-treated and TIP/STZ treated rats were isolated after 4 wks. The hearts were perfused using the Langendorff method with BSA-FITC (Di Napoli et al., Nitric Oxide 16 (2007), 228-236). Hearts were subsequently frozen in liquid nitrogen and slices were cut with a microtome. Subsequently, fluorescence was assessed in 4 slices of each heart and cumulative fluorescence responses were recorded.

Structure (SMILES): C[C@@H]1NC(=O)CNC(=O)[C@H](CCC(=O)O)NC(=O)[C@@H]2CCCN2C(=O)[C@H]([C@@H](C)O)NC(=O)[C@H](CCC(=O)O)NC(=O)[C@H](CCCNC(=N)N)NC(=O)[C@H](CCC(N)=O)NC(=O)CNC(=O)[C@@H](N)CSSC[C@@H](C(=O)O)NC(=O)[C@H](Cc2ccc(O)cc2)NC(=O)[C@H](Cc2c[nH]c3ccccc23)NC(=O)[C@@H]2CCCN2C(=O)[C@H](CCCCN)NC(=O)[C@H](C)NC(=O)[C@H](CCC(=O)O)NC1=O [AP301, (NH2) Cys-Gly-Gln-Arg-Glu-Thr-Pro-Glu-Gly-Ala-Glu-Ala-Lys-Pro-Trp-Tyr-Cys (COOH)]
- Concentration of IL-6 (fresh human whole blood; concentration 1 ng/ml): less than 0.5 pg/ml
- Concentration of IL-6 (fresh human whole blood; concentration 3 ng/ml): less than 0.5 pg/ml
- Concentration of IL-6 (fresh human whole blood; concentration 1 (unit uncertain)): less than 0.5 pg/ml
- Concentration of IL-6 (fresh human whole blood; concentration 10 (unit uncertain)): less than 0.5 pg/ml
- IL-6 secretion (pro-inflammatory response) (fresh human whole blood; whole blood cultures from five healthy donors, all concentrations tested (10 μg/ml to 1 ng/ml)): did not induce any detectable level of IL-6 secretion; also recorded: did not induce a pro-inflammatory response
- acetylcholine-induced vasorelaxation response in septal coronary arteries [1]: significantly improved the vasorelaxation response
- weight (STZ-treated rats): increased weight loss
- cardiac permeability (Albumin-FITC incorporation) (perfused rat hearts): significantly inhibits cardiac hyperpermeability
- cardiac permeability (Albumin-FITC incorporation) (perfused rat hearts; listed as TIP peptide): inhibits STZ-associated cardiac permeability

Source: US9359419B2, “Treatment of vascular complications of diabetes” (priority 2010, dated 2016)
